Results reported in patent publication US12122762B2, “Crystal form a of NHE3 inhibitor, preparation method therefor and application thereof” (SHENZHEN RENTAI PHARMATECH LTD., priority 2019, dated 2024).

Legend:
Format in all cases: physicochemical
[1] = Light stability (25° C., 4500 Lux), content by HPLC peak area normalization
Protocol: (§1) Follow tests are performed for the amorphous bulk pharmaceutical chemical of embodiment 1 and the crystal form A prepared in embodiment 2: • (1) Light stability: the test sample is placed in an environment having a temperature of 25° C. and a light condition of 4500 Lux for 5 days and 10 days, respectively, to test the stability of the crystal form. Samples are collected at the same point at 5th and 10th day to measure content by HPLC peak area normalization method. […] Samples are collected at the same point at 5th and 10th day to measure content by HPLC peak area normalization method. […] Samples are collected at the same point at 5th and 10th day to measure content by HPLC peak area normalization method.

[2] = High-temperature stability (60° C.), content by HPLC peak area normalization
Protocol: as §1

[3] = High-humidity stability (75% RH, 40° C.), content by HPLC peak area normalization
Protocol: as §1

[4] = Hygroscopicity study by dynamic vapor sorption (DVS); conditions: 25° C.
Protocol: • Model: BRUKER D8 DISCOVER (BRUKER, Germany) • Method: Cu target Ka, voltage: 40 KV, current: 40 mA, test angle: 3-45°, scanning step: 0.02, exposure time: 0.2 S, slit width of light pipe: 1 mm, slit width of detector: 2.7 mm. X-Ray Single Crystal Diffractometer SXRD • Model: BRUKER D8 QUEST (BRUKER, Germany) • Method: Cu target, voltage: 40 KV, current: 30 mA Differential Scanning Calorimeter DSC • Model: TA 250 (TA Instruments, US) • Method: heating at a rate of 10° C./min. Thermal Gravimetric Analysis TGA • Model: TA 550 (TA Instruments, US); • Method: heating at a rate of 10° C./min. Dynamic Vapor Sorption DVS • Model: DVS intrinsic (SMS, British); • Method: 25° C., relative humidity is stepped up at a rate of 10% per step, and the judgment standard is change in moisture content is <0.002% over a 10-minute period. Light Incubator • Model: MGC-100 (Shanghai Yiheng Scientific Instrument Co., Ltd.) Ultrasound Equipment • Model: KQ-3200 (Shanghai Alloy Ultrasonic Equipment Co., Ltd.) Programmable Temperature and Humidity Chamber for Drug Stability • Model: CMA-100C (Shanghai Puhan Precision Equipment Co., Ltd.) […]

[5] = Hygroscopicity of compound of formula (I) prepared according to CN103819403B; conditions: within 10 min under a humidity of RH 45%
From the text: The inventors of the present invention prepared the compound of formula (I) according to the preparation method as described in CN103819403B, and carried out analysis. […] Especially, the prepared compound of formula (I) was found easy to decompose in environment of high temperature or high humidity or under strong lights, causing rapid decrease in the content of active ingredients. […] Therefore, a strict management would be required during use of the compound of formula (I), rendering the compound unsuitable for use as a bulk pharmaceutical chemical.

Row | Purity (%) after light stability test ([1]; 5 days) [%] | Purity (%) after light stability test ([1]; 10 days) [%] | Purity (%) after high-temperature stability test ([2]; 5 days) [%] | Purity (%) after high-temperature stability test ([2]; 10 days) [%] | Purity (%) after high-humidity stability test ([3]; 5 days) [%] | Purity (%) after high-humidity stability test ([3]; 10 days) [%] | weight increase due to moisture absorption ([4]; RH 0 to RH 90%, RH 10% per step, 10 min per step) [%] | weight increase because of hygroscopicity [5] | weight change in each step of 10 min ([4]; each RH 10% step of 10 min) | SMILES
1 | 72.54 | 71.99 | 61.62 | 58.98 | 81.63 | 79.78 | 7 | – | – | CN1Cc2c(Cl)cc(Cl)cc2[C@@H](c2cccc(S(=O)(=O)NCCOCCOCCNC(=O)NCCCCNC(=O)NCCOCCOCCNS(=O)(=O)c3cccc([C@@H]4CN(C)Cc5c(Cl)cc(Cl)cc54)c3)c2)C1 [amorphous bulk pharmaceutical chemical]
2 | – | – | – | – | – | – | – | up to 2% | – | CN1Cc2c(Cl)cc(Cl)cc2[C@@H](c2cccc(S(=O)(=O)NCCOCCOCCNC(=O)NCCCCNC(=O)NCCOCCOCCNS(=O)(=O)c3cccc([C@@H]4CN(C)Cc5c(Cl)cc(Cl)cc54)c3)c2)C1 [compound of formula (I)]
3 | 91.78 | 89.07 | 98.64 | 98.72 | 98.52 | 98.56 | – | – | less than 0.02% | CN1Cc2c(Cl)cc(Cl)cc2[C@@H](c2cccc(S(=O)(=O)NCCOCCOCCNC(=O)NCCCCNC(=O)NCCOCCOCCNS(=O)(=O)c3cccc([C@@H]4CN(C)Cc5c(Cl)cc(Cl)cc54)c3)c2)C1 [crystal form A]
